Measured values from ChEMBL document CHEMBL1144699 (Bioorg Med Chem, 2008).
Calls of active or inactive are those of the source. No cut-off for these calls is given here.

Experiments:
[1] = target: Mitogen-activated protein kinase 8 (Homo sapiens, UniProt P45983); experiment: Inhibition of human JNK1 by radiometric assay
[2] = target: Mitogen-activated protein kinase 8 (Rattus norvegicus, UniProt P49185); experiment: Inhibition of JNK1 in rat H9c2 cells assessed as inhibition of anisomycin-induced cJun phosphorylation after 30 mins; format: cell-based
[3] = Metabolic stability in human microsomes at 1 uM; format: ADME, Microsome; details: read-out: Stability
[4] = Metabolic stability in rat microsomes at 1 uM; format: ADME, Microsome; details: read-out: Stability
[5] = Lipophilicity, log D at pH 7.4; format: physicochemical; details: buffer
[6] = Volume of distribution at steady state in Wistar rat at 0.3 mg/kg, iv; format: ADME, organism-based; set-up: dose 0.3 mg/kg, route intravenous; details: in vivo, read-out: Vdss
[7] = Total clearance in Wistar rat at 0.3 mg/kg, iv; format: ADME, organism-based; set-up: dose 0.3 mg/kg, route intravenous; details: in vivo
[8] = AUC in Wistar rat at 0.3 mg/kg, iv; format: ADME, organism-based; set-up: dose 0.3 mg/kg, route intravenous; details: plasma
[9] = Cmax in Wistar rat at 3 mg/kg, po; format: ADME, organism-based; set-up: dose 3 mg/kg, route oral; details: in vivo
[10] = AUC in Wistar rat at 3 mg/kg, po; format: ADME, organism-based; set-up: dose 3 mg/kg, route oral; details: plasma
[11] = Tmax in Wistar rat at 3 mg/kg, po; format: ADME, organism-based; set-up: dose 3 mg/kg, route oral; details: in vivo
[12] = Oral bioavailability in Wistar rat at 3 mg/kg; format: ADME, organism-based; details: in vivo
Rattus norvegicus = experiment: Suppression of pressure-overload-induced cardiac hypertrophy in Wistar rat assessed as decrease in left ventricular weight to body weight ratio at 1 mg/kg, po once daily for 7 days; format: functional, organism-based; set-up: dose 1 mg/kg; details: Heart left ventricle

Chain of Mitogen-activated protein kinase 8 (Homo sapiens, UniProt P45983) (P45983 whole entry): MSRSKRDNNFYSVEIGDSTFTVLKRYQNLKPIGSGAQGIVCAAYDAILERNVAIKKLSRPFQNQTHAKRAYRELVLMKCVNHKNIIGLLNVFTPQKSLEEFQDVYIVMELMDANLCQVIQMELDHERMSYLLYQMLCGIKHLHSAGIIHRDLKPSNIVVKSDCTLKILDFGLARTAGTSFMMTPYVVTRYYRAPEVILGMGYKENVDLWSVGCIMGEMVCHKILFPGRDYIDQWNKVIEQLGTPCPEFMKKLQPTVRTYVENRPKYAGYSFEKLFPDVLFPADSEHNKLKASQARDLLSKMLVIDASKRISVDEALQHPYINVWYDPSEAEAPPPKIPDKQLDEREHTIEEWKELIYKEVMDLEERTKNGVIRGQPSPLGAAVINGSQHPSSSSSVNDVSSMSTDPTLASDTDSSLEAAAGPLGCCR
Chain of Mitogen-activated protein kinase 8 (Rattus norvegicus, UniProt P49185) (P49185 whole entry): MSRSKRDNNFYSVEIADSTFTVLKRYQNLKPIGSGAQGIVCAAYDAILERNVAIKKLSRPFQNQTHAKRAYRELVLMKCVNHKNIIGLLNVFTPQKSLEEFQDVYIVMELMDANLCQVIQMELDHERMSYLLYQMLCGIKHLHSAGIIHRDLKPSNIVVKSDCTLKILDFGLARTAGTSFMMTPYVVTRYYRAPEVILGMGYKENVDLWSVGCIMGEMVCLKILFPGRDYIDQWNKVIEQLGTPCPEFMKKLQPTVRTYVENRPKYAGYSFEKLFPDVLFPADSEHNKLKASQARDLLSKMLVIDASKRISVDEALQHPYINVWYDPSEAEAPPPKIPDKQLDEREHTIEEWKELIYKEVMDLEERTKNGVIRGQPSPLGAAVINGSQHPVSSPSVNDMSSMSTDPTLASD

IC50 [1] [nM] | IC50 [2] [nM] | microsomal CLint at 1 µM [3] [µL/min/mg] | microsomal CLint at 1 µM [4] [µL/min/mg] | logD [5] | Compound | further results
11 | 670 | 35 | 110 | 4.08 | CCC(=O)c1c(-c2ccccc2)c2cc(Cl)ccc2c(=O)n1Cc1cc(C(N)=O)n(CC)n1 | –
7.6 | 730 | 70 | 80 | 3.79 | CCC(=O)c1c(-c2ccccc2)c2cc(Cl)ccc2c(=O)n1Cc1cc(S(C)(=O)=O)n(CC(C)=O)n1 | –
8.6 | – | – | – | 4.51 | CCNC(=O)n1ccc(Cn2c(C(=O)CC)c(-c3ccccc3)c3cc(Cl)ccc3c2=O)n1 | –
7.3 | 2180 | 15 | 81 | 3.77 | CCC(=O)c1c(-c2ccccc2)c2cc(Cl)ccc2c(=O)n1Cc1cc(C(N)=O)n(C)n1 | –
6.4 | 720 | 44 | 89 | 4.35 | CCC(=O)c1c(-c2ccccc2)c2cc(Cl)ccc2c(=O)n1Cc1cc(C(=O)NC2CC2)n(C)n1 | Vd [6]: 3.54 L/kg; clearance [7]: 21.4 mL/min/kg; AUC [8]: 234 ng·h/mL; Cmax [9]: 47.1 ng/mL; AUC [10]: 340 ng·h/mL; Tmax [11]: 2 h; bioavailability [12]: 15%; Activity (Rattus norvegicus): Active
11 | – | 250 | 230 | 3.91 | CCC(=O)c1c(-c2ccccc2)c2cc(Cl)ccc2c(=O)n1Cc1cc(C(=O)N(C)C)n(C)n1 | –
– | 2600 | – | – | – | COC(=O)c1c(-c2ccccc2)c2cc(Br)ccc2c(=O)n1Cc1ccc(S(C)(=O)=O)cc1 | –
6.8 | – | – | – | – | CCC(=O)c1c(-c2ccccc2)c2cc(Cl)ccc2c(=O)n1Cc1cn(C(=O)NC)c(C)n1 | –
33 | – | 37 | 74 | 3.5 | CCC(=O)c1c(-c2ccccc2)c2cc(Cl)ccc2c(=O)n1Cc1cc(C(=O)NC)n[nH]1 | –
10 | 480 | 36 | 52 | 4.19 | CCC(=O)c1c(-c2ccccc2)c2cc(Cl)ccc2c(=O)n1Cc1cc(S(C)(=O)=O)n(CC(F)F)n1 | –
8.2 | 1050 | 14 | – | 3.42 | CCC(=O)c1c(-c2ccccc2)c2cc(Cl)ccc2c(=O)n1Cc1cc(S(C)(=O)=O)n(CC(N)=O)n1 | –
43 | – | 43 | 60 | 4.45 | CCNC(=O)n1cc(Cn2c(C(=O)CC)c(-c3ccccc3)c3cc(Cl)ccc3c2=O)cn1 | –
10 | 330 | 102 | 74 | 4.23 | CCC(=O)c1c(-c2ccccc2)c2cc(Cl)ccc2c(=O)n1Cc1cc(S(C)(=O)=O)n(CCC(C)(C)O)n1 | –
– | 2300 | – | – | – | CCC(=O)c1c(-c2ccccc2)c2cc(Cl)ccc2c(=O)n1Cc1ccc(C(=O)O)cc1 | –
10 | 1140 | 14 | – | 4.66 | CCC(=O)c1c(-c2ccccc2)c2cc(Cl)ccc2c(=O)n1Cc1cc(C(=O)NC2CC2)n(CC(F)F)n1 | –
9.4 | 260 | 79 | 177 | 3.97 | CCC(=O)c1c(-c2ccccc2)c2cc(Cl)ccc2c(=O)n1Cc1cc(C(=O)NC)n(C)n1 | –
28 | – | – | – | – | CCC(=O)c1c(-c2ccccc2)c2cc(Cl)ccc2c(=O)n1Cc1ccc(S(C)(=O)=O)cc1 | –
